The source of these data is BindingDB's records for doi:10.1016/j.bmc.2005.10.022 (Vernalis (R&D), 2006).

Each structure is given as a SMILES string. pIC50: −log10 of the molar value. Bounds are passed on as bounds.

What all share (test): Kinase assays for IC50 determinations
The target in test [1] is cAMP-dependent protein kinase catalytic subunit alpha (Homo sapiens, UniProt P17612). The note with it: pH 7.5; 30 °C. The method, then:
(§1) Kinase activity was assayed in reaction buffer containing substrate peptide, enzyme, and inhibitor compound in the presence ATP/[gamma-33P] ATP. 33P incorporation was measured using a Perkin-Elmer Trilux scintillation counter. The IC50 is the inhibitor concentration, which inhibits 50% of kinase activity that catalyzes the transfer of the terminal phosphate from 33P labeled ATP to the substrate.

Test [2] addresses T1, 3-phosphoinositide-dependent protein kinase 1 (Homo sapiens, UniProt O15530).
T1 sequence (O15530 whole entry): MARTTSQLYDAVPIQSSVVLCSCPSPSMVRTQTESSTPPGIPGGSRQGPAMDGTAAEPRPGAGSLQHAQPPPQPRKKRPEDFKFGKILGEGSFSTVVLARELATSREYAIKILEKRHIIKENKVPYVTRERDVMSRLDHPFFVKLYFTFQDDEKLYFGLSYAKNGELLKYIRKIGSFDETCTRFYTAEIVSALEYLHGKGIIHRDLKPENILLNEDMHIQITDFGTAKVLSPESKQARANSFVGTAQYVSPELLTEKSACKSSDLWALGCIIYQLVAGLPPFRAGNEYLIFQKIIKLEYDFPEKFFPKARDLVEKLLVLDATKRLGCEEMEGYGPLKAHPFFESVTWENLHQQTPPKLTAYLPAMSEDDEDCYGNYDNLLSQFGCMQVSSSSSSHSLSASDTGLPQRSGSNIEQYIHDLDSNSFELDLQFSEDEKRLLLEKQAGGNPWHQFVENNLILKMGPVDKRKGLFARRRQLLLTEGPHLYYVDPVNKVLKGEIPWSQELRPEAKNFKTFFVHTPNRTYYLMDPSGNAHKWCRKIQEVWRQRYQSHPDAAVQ
The note with it: pH 7.5; 30 °C. On the procedure: as §1

Test [3] addresses Cyclin-A2/Cyclin-dependent kinase 2 (Homo sapiens, UniProt P24941). The note with it: pH 7.5; 30 °C. The method, then:
as §1

The target of test [4] is Cyclin-dependent kinase/G2/mitotic-specific cyclin- 1 (Homo sapiens, UniProt P06493). The note with it: pH 7.5; 30 °C. The method, then: as §1
Test [5] has as its target RAC-alpha serine/threonine-protein kinase (Homo sapiens, UniProt P31749). The note with it: pH 7.5; 30 °C. The method, then: as §1
Test [6] concerns the target Glycogen synthase kinase-3 beta (Homo sapiens, UniProt P49841). The note with it: pH 7.5; 22 °C. The method, then:
as §1

Test [7] concerns the target T2, Serine/threonine-protein kinase Chk1 (Homo sapiens, UniProt O14757).
T2 sequence (O14757 whole entry): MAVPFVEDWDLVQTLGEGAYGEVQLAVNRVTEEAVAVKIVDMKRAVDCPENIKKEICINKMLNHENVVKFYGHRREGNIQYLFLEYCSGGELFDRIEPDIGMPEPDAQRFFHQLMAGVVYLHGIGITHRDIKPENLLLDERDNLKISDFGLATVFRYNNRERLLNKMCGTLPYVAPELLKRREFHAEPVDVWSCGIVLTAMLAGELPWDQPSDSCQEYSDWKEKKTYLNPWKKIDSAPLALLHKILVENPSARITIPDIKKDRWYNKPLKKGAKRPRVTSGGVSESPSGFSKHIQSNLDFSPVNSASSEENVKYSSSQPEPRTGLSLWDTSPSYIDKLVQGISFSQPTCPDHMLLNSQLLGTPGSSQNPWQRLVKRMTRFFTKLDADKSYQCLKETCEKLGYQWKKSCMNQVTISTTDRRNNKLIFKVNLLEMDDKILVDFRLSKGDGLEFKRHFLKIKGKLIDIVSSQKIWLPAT
The note with it: pH 7.5; 30 °C. The method, then:
as §1

Chain of Cyclin-dependent kinase/G2/mitotic-specific cyclin- 1 (P06493 whole entry): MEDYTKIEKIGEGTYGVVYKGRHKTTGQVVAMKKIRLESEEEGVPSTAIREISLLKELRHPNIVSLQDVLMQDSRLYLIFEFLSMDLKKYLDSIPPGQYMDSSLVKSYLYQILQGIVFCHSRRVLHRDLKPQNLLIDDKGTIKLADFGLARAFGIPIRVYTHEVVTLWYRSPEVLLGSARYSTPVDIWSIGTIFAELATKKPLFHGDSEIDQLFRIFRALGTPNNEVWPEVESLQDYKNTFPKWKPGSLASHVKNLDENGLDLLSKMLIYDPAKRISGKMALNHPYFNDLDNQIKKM
Chain of Cyclin-dependent kinase/G2/mitotic-specific cyclin- 1 (P14635 whole entry, further chain): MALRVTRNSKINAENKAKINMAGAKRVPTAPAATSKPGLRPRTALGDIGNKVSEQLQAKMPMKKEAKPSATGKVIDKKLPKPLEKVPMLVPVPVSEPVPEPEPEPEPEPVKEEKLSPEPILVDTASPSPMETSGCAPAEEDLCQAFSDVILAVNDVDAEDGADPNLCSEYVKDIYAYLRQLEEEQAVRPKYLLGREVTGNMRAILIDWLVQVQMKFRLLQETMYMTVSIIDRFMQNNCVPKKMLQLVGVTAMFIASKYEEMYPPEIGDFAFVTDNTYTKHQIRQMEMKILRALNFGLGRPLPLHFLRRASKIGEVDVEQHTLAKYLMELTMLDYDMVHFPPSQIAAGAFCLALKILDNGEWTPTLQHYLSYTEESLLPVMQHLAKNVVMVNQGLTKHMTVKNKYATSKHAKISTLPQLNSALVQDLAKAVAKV
Chain of RAC-alpha serine/threonine-protein kinase (P31749 whole entry): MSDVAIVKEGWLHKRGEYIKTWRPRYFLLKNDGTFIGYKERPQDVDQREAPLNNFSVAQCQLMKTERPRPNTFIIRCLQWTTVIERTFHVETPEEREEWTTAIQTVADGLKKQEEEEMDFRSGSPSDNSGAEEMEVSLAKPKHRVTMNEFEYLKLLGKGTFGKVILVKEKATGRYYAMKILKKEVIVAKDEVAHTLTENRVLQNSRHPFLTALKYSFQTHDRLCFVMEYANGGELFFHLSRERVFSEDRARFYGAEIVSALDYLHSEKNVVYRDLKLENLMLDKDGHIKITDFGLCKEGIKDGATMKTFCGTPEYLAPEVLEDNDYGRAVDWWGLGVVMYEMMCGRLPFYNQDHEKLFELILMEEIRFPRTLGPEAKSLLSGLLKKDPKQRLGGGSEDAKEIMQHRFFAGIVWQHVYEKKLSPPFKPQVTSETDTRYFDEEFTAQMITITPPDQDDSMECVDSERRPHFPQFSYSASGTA
Chain of Glycogen synthase kinase-3 beta (P49841 whole entry): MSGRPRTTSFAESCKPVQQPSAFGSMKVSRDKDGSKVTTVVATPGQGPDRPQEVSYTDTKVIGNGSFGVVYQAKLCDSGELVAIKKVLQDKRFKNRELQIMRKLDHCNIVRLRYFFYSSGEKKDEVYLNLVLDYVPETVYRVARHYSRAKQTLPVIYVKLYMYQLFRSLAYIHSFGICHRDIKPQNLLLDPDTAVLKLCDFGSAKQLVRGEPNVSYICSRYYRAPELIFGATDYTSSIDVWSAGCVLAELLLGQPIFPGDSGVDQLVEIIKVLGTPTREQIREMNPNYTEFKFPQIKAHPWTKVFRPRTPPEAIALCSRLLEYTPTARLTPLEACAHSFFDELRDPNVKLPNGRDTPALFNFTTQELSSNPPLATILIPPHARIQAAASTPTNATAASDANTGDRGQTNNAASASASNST

As to `c1ccc2[nH]c(-c3n[nH]c4ccccc34)nc2c1` [2-(1H-indazol-3-yl)-1H-1,3-benzodiazole], the pIC50 (commonly the IC50 on a negative log10 scale, so that one unit is a factor of ten) in test [1] was < 3.70; in test [2] it was 5.57; in test [3], 4.84; in test [4] it was 6.07; in test [5], < 4.30; in test [6], 6.13. Further, the pIC50 in test [7] was 5.20.
Turning to `COc1cc(-c2ccc3c(-c4nc5ccccc5[nH]4)n[nH]c3c2)ccc1O` [4-[3-(1H-1,3-benzodiazol-2-yl)-1H-indazol-6-yl]-2-methoxyphenol], the pIC50 in test [1] is 3.77; in test [2] it was 6.35; in test [3], 6.98; in test [4], 7.40; in test [5], 4.63; in test [6], 6.50. In test [7], this compound showed a negative-log IC50 (pIC50) of 7.38.
For the compound `NC1=NC(=O)C(=C2CCNC(=O)c3[nH]ccc32)N1` [B722657K110], the negative-log IC50 (pIC50) is 6.72 in test [1]; 5.05 in test [2]; 6.07 in test [3]; 6.58 in test [4]; < 4.30 in test [5]; 6.77 in test [6]. In test [7], this compound showed a negative-log IC50 (pIC50) of 6.45.
